Measurements as given in patent publication US7183106B1, “Bacterial inosine 5′-monophosphate dehydrogenase (“IMPDH”) DNA as a dominant selectable marker in mammals and other eukaryotes” (The United States of America as represented by the United …, priority 2004, dated 2007).

Tests used:
Experiment in all cases: MPA toxicity by MTT assay
[1] = system: V79 cells; format: cell-based, Chinese hamster
Procedure: (§1) The mammalian cells (2×10^7) (i.e. V79, MDA-MB-231, PC3, COS7) were washed once with phosphate buffered saline (PBS), resuspended in 400 μl of Cytomix buffer, placed in an electroporation cuvette and transfected with 10 μg of DNA by electroporation at 200V, 30 ms, in an ElectroSquarePorator T280 electroporator (BTX, Inc., San Diego, Calif.). Immediately after electroporation, the cuvettes were placed on ice for 10–15 min. After that the cells were washed once in PBS and 1×10^6 viable cells, as determined by trypan blue exclusion, were re-suspended in 10 ml of growth medium in 100 mm tissue culture plates, incubated overnight at 37° C. and treated the next day with 0.8 μg/ml of MPA (stock concentration at 14.2 mg/ml in DMSO, Sigma, St. Louis, Mo.) or 600 μg/ml of G418. For the different assays, cells were obtained from either individual or pooled MPA-resistant colonies. For colony isolation, visible individual colonies were each picked and aspirated into a glass Pasteur pipette and transferred into a well of a 24-well tissue culture plate. The next day, after rinsing the wells with the colonies with PBS and incubation for 1–2 min in a drop of a trypsin/EDTA solution, the cells within each well were dispersed by forceful pipetting. Next, the cells were incubated in growth medium to generate a monolayer culture, which was used to determine the cells' susceptibility to MPA. Cultures were also obtained from single MPA-resistant cells derived from pooled colonies by seeding 2.5 cells/ml into 96-well flat-bottom microtiter plates in 200 μl of growth medium/well and only cultures deriving from wells that were initially found to contain single cells were used. MPA toxicity was determined by the MTT (methylthiazoletetrazolium) assay (described in detail below) while the expression of the green fluorescent protein (GFP) was detected by fluorescence microscopy and/or flow cytometry.
(§2) Cell survival and proliferation was measured using the MTT assay, which detects active mitochondria and as a result viable cells. For this assay, 2×10^4 cells were suspended in 200 μl of growth medium/well in 96-well flat-bottom microtiter plates with various stimuli and incubated at 37° C. After 6 d, 10 μl of MTT solution (5 mg/ml in PBS) (Sigma, St. Louis, Mo.) was added to each well and the plates were incubated for an additional 4 h at 37° C. In the case of V79 cells, which grow twice as fast as the other cell lines, the MTT solution was added after 3 d. The plates were then centrifuged at 1000 rpm for 5 min, supernatants discarded and 100 µl of DMSO added per well, and the plates were read at 540 nm using a microtiter plate reader.

[2] = system: COS7 cells; format: cell-based, monkey
Procedure: as §1, with “Cultures were also obtained from single MPA-resistant cells derived from pooled colonies by seeding 2.5 cells/ml into 96-well flat-bottom microtiter plates in 200 μl of growth medium/well and only cultures deriving from wells that were initially found to contain single cells were used.” left out
Cell survival and proliferation was measured using the MTT assay, which detects active mitochondria and as a result viable cells. […] The plates were then centrifuged at 1000 rpm for 5 min, supernatants discarded and 100 µl of DMSO added per well, and the plates were read at 540 nm using a microtiter plate reader.

[3] = system: MDA-MB-231 cells; format: cell-based, human
Procedure: as §1, §2

[4] = system: PC3 cells; format: cell-based, human
Procedure: as §1, §2

Compound: COc1c(C)c2c(c(O)c1C/C=C(\C)CCC(=O)O)C(=O)OC2 [MPA, mycophenolic acid]
- MPA concentration to whose cytotoxic effect the cells were resistant ([1]; 7 individual MPA-resistant V79 colonies (pFLAG-IMPDH transfected), MTT assay): up to 50 μg/ml
- MPA concentration at which cells failed to grow ([1]; parental (not transfected) V79 cells): ≤ 0.8 µg/mL
- MPA concentration to whose cytotoxic effect the cells were resistant ([1]; single cell-derived cultures from pooled MPA-resistant V79 colonies): up to 50 μg/ml
- Time after MPA treatment at which growth inhibition was detected ([1]; wild type V79 cells): 3 days
- MTT staining of control cultures after 4 weeks of MPA treatment ([2]; control (not transfected parental) COS7 cultures, 4 weeks): no MTT staining above background levels
- MPA concentration to whose cytotoxic effect the cells were resistant ([2]; single cell-derived cultures from pooled MPA-resistant COS7 colonies): up to 50 μg/ml
- Time after MPA treatment at which growth inhibition was detected ([2]; wild type COS7 cells): 6 days
- MTT staining of control cultures after 4 weeks of MPA treatment ([3]; control (not transfected parental) MDA-MB-231 cultures, 4 weeks): no MTT staining above background levels
- MPA concentration to whose cytotoxic effect the cells were resistant ([3]; single cell-derived cultures from pooled MPA-resistant MDA-MB-231 colonies): up to 50 μg/ml
- Time after MPA treatment at which growth inhibition was detected ([3]; wild type MDA-MB-231 cells): 6 days
- MTT staining of control cultures after 4 weeks of MPA treatment ([4]; control (not transfected parental) PC3 cultures, 4 weeks): no MTT staining above background levels
- MPA concentration to whose cytotoxic effect the cells were resistant ([4]; single cell-derived cultures from pooled MPA-resistant PC3 colonies): up to 50 μg/ml
- Time after MPA treatment at which growth inhibition was detected ([4]; wild type PC3 cells): 6 days
